Data as given in US20110039762A1, “TARGETED ANTIMICROBIAL MOIETIES” (C3 JIAN, INC., priority 2009, published 2011).
Entries after “also recorded” stand apart in the source; their conditions may differ.

B1: PF-389: peptide having multiple activities (peptide)
chain 1: GLQFKEIAEEFHITTTALQQWHKDNGYPIYNKNNRK
chain 2: GLQFKEIAEEFHITTTALQQWHKDNGYPIYNKNNRK
modifications: Peptide with targeting and/or antimicrobial activity

Experiments:
C. jejuni = assay: Kill or inhibit growth/proliferation; morphology, biofilm and growth disruption (Tables 5, 6); type: cell-based, Campylobacter jejuni; parameters: key: A: Peptide aggregates; B: Less hyphal formation; Clumps; Diffuse clumps and small polyps; F: Diffuse growth; H: Thin; I: Growth inhibition; Microcolony formation; Rippled; Small polyps; Thick; W: Halo formation on top, microlonies on bottom; further: test concentration or dose not given here
E. faecalis = assay: as above; type: cell-based, Enterococcus faecalis; parameters: key: A: Peptide aggregates; B: Less hyphal formation; Clumps; Diffuse clumps and small polyps; F: Diffuse growth; H: Thin; I: Growth inhibition; Microcolony formation; Rippled; Small polyps; Thick; W: Halo formation on top, microlonies on bottom
S. pneumoniae = assay: as above; type: cell-based, Streptococcus pneumoniae; parameters: key: A: Peptide aggregates; B: Less hyphal formation; Clumps; Diffuse clumps and small polyps; F: Diffuse growth; H: Thin; I: Growth inhibition; Microcolony formation; Rippled; Small polyps; Thick; W: Halo formation on top, microlonies on bottom
E. coli = assay: as above; type: cell-based, Escherichia coli; parameters: key: A: Peptide aggregates; B: Less hyphal formation; Clumps; Diffuse clumps and small polyps; F: Diffuse growth; H: Thin; I: Growth inhibition; Microcolony formation; Rippled; Small polyps; Thick; W: Halo formation on top, microlonies on bottom; further: test concentration or dose not given here
microorganisms = assay: Peptides having multiple activities (targeting/binding, antimicrobial, growth or phenotype altering)
Source text: In certain embodiments, peptides described herein can have multiple activities. Thus for example, a peptide can have both binding/targeting activity and antimicrobial activity. Such peptides can be used, e.g., in a chimeric construct, for any or all of these properties. Thus, for example, a peptide designated “B” in Table 8 can be used as a targeting peptide. If it is also designated G or M it can also be used for antimicrobial activity.

MRSA = assay: Kill or inhibit growth/proliferation; morphology, biofilm and growth disruption (Tables 5, 6); type: cell-based, Methicillin-resistant Staphylococcus aureus; parameters: key: A: Peptide aggregates; B: Less hyphal formation; Clumps; Diffuse clumps and small polyps; F: Diffuse growth; H: Thin; I: Growth inhibition; Microcolony formation; Rippled; Small polyps; Thick; W: Halo formation on top, microlonies on bottom; further: test concentration or dose not given here
S. epidermidis = assay: as above; type: cell-based, Staphylococcus epidermidis; parameters: key: A: Peptide aggregates; B: Less hyphal formation; Clumps; Diffuse clumps and small polyps; F: Diffuse growth; H: Thin; I: Growth inhibition; Microcolony formation; Rippled; Small polyps; Thick; W: Halo formation on top, microlonies on bottom
M. luteus = assay: as above; type: cell-based, Micrococcus luteus; parameters: key: A: Peptide aggregates; B: Less hyphal formation; Clumps; Diffuse clumps and small polyps; F: Diffuse growth; H: Thin; I: Growth inhibition; Microcolony formation; Rippled; Small polyps; Thick; W: Halo formation on top, microlonies on bottom; further: test concentration or dose not given here
[1] = test system: microorganisms (e.g., bacteria, yeasts, fungi); assay: Targeting peptide binding to target microorganisms (Table 3); settings: preferably 1x PBS; for Target(s): microorganism(s) the targeting peptide binds, peptide binding conducted in aqueous buffers varied by peptide solubility; for Target(s) (microorganisms bound by the targeting peptide): peptide binding in aqueous buffers varied by peptide solubility
Wherever Organism, effect is given: test concentration or dose not given here.

Molecule	Organism, effect (C. jejuni)	Organism, effect (E. faecalis)	Organism, effect (S. pneumoniae)	Organism, effect (E. coli)	Activities (microorganisms)	Organism, effect (MRSA)	Organism, effect (S. epidermidis)	Organism, effect (M. luteus)	Target(s) [1]	Target(s) (microorganisms bound by the targeting peptide) [1]
DLLKSLLGQDGAKNDEIIEFIKIIMEK [PF-591]	C. jejuni (C)	E. faecalis (A)	S. pneumoniae (R)							
MGIIAGIIKVIKSLIEQFTGK [PF-007]		E. faecalis (A)		E. coli (A)	G B	MRSA (R)	S. epidermidis (A)	M. luteus (A)		
PF-059 (TITLKAGIERALHEEVPGVIEVEQVF; Peptide with targeting and/or antimicrobial activity)	C. jejuni (C)									
PF-357: peptide having multiple activities (chain 1 MLTIIIGFIFWTMTLMLGYLIGEREGRKHE; chain 2 MLTIIIGFIFWTMTLMLGYLIGEREGRKHE; Peptide with targeting and/or antimicrobial activity)			S. pneumoniae (M)		G B	MRSA (M)	S. epidermidis (M)	M. luteus (C)		
PF-392: peptide having multiple activities (chain 1 DPAGCNDIVRKYCK; chain 2 DPAGCNDIVRKYCK; Peptide with targeting and/or antimicrobial activity)	C. jejuni (A)	E. faecalis (A)			G B	MRSA (S)			S. epidermidis; also recorded: B. subtilis; also recorded: S. pneumoniae; also recorded: C. jeikeium; also recorded: C. jejuni	
PF-393: peptide having multiple activities (chain 1 DLVQSILSEFKKSG; chain 2 DLVQSILSEFKKSG; Peptide with targeting and/or antimicrobial activity)	C. jejuni (R)	E. faecalis (A)	S. pneumoniae (R)		G B	MRSA (C)	S. epidermidis (R)		S. epidermidis and E. coli and C. albicans and MRSA and S. pneumoniae and C. jejuni	
PF-431: peptide having multiple activities (VAYAAICWW; Peptide with targeting and/or antimicrobial activity)	C. jejuni (R)	E. faecalis (R)	S. pneumoniae (R)		G B	MRSA (C)	S. epidermidis (M)			
PF-456: peptide having multiple activities (chain 1 TCVKPRTIN; chain 2 TCVKPRTIN; Peptide with targeting and/or antimicrobial activity)	C. jejuni (A)	E. faecalis (A)			G B				C. albicans and MRSA and E. faecalis and C. jeikeium and C. jejuni	
PF-470: peptide having multiple activities (chain 1 PYSDSYATRPHWEQHRAR; chain 2 PYSDSYATRPHWEQHRAR; Peptide with targeting and/or antimicrobial activity)	C. jejuni (A)	E. faecalis (A)			G B				M. luteus and E. coli and MRSA and E. faecalis and C. jeikeium and C. jejuni	
PF-581: peptide having multiple activities (WTARARR; Peptide with targeting and/or antimicrobial activity)	C. jejuni (A)	E. faecalis (A)	S. pneumoniae (A)		G B	MRSA (A)				
PF-585: peptide having multiple activities (DYNHLLNVVQDWVNTN; Peptide with targeting and/or antimicrobial activity)	C. jejuni (R)	E. faecalis (A)	S. pneumoniae (R)		G B	MRSA (S)	S. epidermidis (S)		S. epidermidis and E. coli and C. albicans and MRSA and S. pneumoniae and C. jeikeium	
PF-590: peptide having multiple activities (YYQAKLFPLL; Peptide with targeting and/or antimicrobial activity)	C. jejuni (R)				G B				S. epidermidis; also recorded: M. luteus; also recorded: E. coli; also recorded: E. faecalis; also recorded: C. jeikeium	
PF-599: peptide having multiple activities (LFEIFKPKH; Peptide with targeting and/or antimicrobial activity)	C. jejuni (R)	E. faecalis (A)	S. pneumoniae (R)		G B	MRSA (C)	S. epidermidis (M)			S. epidermidis and P. mirabilis and E. coli and C. albicans and MRSA and S. pneumoniae and C. jeikeium
PF-601: peptide having multiple activities (YRVTVKALE; Peptide with targeting and/or antimicrobial activity)	C. jejuni (A)	E. faecalis (A)			G B					C. jeikeium
PF-607: peptide having multiple activities (YIESDPRKFDYIFGAIRDH; Peptide with targeting and/or antimicrobial activity)	C. jejuni (R)	E. faecalis (A)	S. pneumoniae (R)		G B	MRSA (S)	S. epidermidis (M)			S. epidermidis and P. mirabilis and E. coli and MRSA and S. pneumoniae and C. jeikeium
PF-609: peptide having multiple activities (TEIKLDNNEYLVLNLDDILGILK; Peptide with targeting and/or antimicrobial activity)	C. jejuni (R)	E. faecalis (A)	S. pneumoniae (R)		G B	MRSA (C)				P. mirabilis; also recorded: E. coli; also recorded: S. pneumoniae
PF-614: peptide having multiple activities (GLDIYA; Peptide with targeting and/or antimicrobial activity)	C. jejuni (R)	E. faecalis (A)	S. pneumoniae (R)				S. epidermidis (M)			S. epidermidis; also recorded: E. coli; also recorded: C. jeikeium
B1	C. jejuni (R)	E. faecalis (R)	S. pneumoniae (D)		G B	MRSA (C)	S. epidermidis (R)		S. epidermidis and C. albicans and MRSA and S. pneumoniae and E. faecalis and C. jeikeium	
